Some results are limits rather than exact numbers.

In one assay the target is T1, active p38 alpha enzyme (Upstate Biotechnology) (Homo sapiens, UniProt Q16539).
T1 construct: purchased Upstate Biotechnology
T1 sequence (Q16539 whole entry): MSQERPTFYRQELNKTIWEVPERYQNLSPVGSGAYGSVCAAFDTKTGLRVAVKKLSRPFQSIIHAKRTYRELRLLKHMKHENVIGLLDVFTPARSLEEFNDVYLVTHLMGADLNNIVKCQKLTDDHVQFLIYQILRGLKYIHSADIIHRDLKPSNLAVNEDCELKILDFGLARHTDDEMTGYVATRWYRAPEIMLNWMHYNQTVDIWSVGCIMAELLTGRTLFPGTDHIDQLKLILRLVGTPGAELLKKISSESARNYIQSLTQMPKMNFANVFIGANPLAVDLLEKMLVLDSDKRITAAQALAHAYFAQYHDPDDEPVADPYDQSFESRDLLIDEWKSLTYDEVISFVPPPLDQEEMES
As to the kind of experiment: p38α biochemical assay (ATP turnover, luminescent detection, Cambrex PKlight). The conditions noted are these: p38α biochemical assay, Table 1 Biological Activity. The method in brief:
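Compounds in DMSO are added to active p38 alpha with MapkapK2 whole protein and ATP at 1.4 uM final. Reactions then run for 2 hours at 30C. A luminescent reagent is added last to quantify total ATP consumed.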
With `COc1ccc(C(=O)NCc2onc(-c3ccc(F)cc3)c2-c2nc(C(=O)NC(C)C)cs2)cc1O` [Example 664], the concentration for half-maximal inhibition (IC50) was over 1000 nM.

`CC(C)NC(=O)c1csc(-c2oc(CNC(=O)/C=C/c3ccc(Cl)cc3)nc2-c2ccc(F)cc2)n1` [Example 230] showed an IC50 of at most 1000 nM.

Consider `CC(C)NC(=O)c1csc(-c2oc(CN3CCN(C(=O)C4CN(C(=O)OC(C)(C)C)CCN4)CC3)nc2-c2ccc(F)cc2)n1` (centres unmarked) [Example 552], for which the IC50 was over 1000 nM.

As for `Cc1cc(C(=O)NCc2nc(-c3ccc(F)cc3)c(-c3nc(C(=O)NC(C)C)cs3)o2)n[nH]1` [Example 116], the IC50 is at most 1000 nM.

`CC(C)NC(=O)c1csc(-c2oc(CN3CCN(C(=O)c4ccc(OC(C)C)cc4)CC3)nc2-c2ccc(F)cc2)n1` [Example 456]: the IC50 was at most 1000 nM.

In turn, `CCNC(=O)c1csc(-c2c(-c3ccc(F)cc3)n[nH]c2C2CCNCC2)n1` [Example 63, 2-|3-(4-Fluoro-phenyl)-5-piperidin-4-yl-1H-pyrazol-4-yl|-thiazole-4-carboxylic acid ethylamide] showed a half-maximal inhibitory concentration (IC50) of at most 1000 nM.

For `CC(C)NC(=O)c1csc(-c2oc(CN3CCN(C(=O)c4ccc(Cl)nc4)CC3)nc2-c2ccc(F)cc2)n1` [Example 389], the IC50 is over 1000 nM.

The molecule `CC(C)NC(=O)c1csc(-c2oc(CNC(=O)c3cc(C(C)C)cc(C(C)C)c3O)nc2-c2ccc(F)cc2)n1` [Example 304] returned an IC50 of at most 1000 nM.

On to `CC(C)NC(=O)c1csc(-c2oc(CN3CCN(C(=O)c4ccc5ncccc5c4)CC3)nc2-c2ccc(F)cc2)n1` [Example 434], for which the IC50 is at most 1000 nM.

The molecule `Cc1ccc(SCC(=O)NCc2onc(-c3ccc(F)cc3)c2-c2nc(C(=O)NC(C)C)cs2)cc1` [Example 704] returned a half-maximal inhibitory concentration (IC50) of over 1000 nM.

Molecule `CC(C)NC(=O)c1csc(-c2oc(CN3CCN(C(=O)/C=C/c4ccc5c(c4)OCO5)CC3)nc2-c2ccc(F)cc2)n1` [Example 492] displayed an IC50 of over 1000 nM.

For the molecule `Cc1nc(-c2ccc(F)cc2)c(-c2nc(C(=O)NCCCO)cs2)s1` [Example 52, 4′-(4-Fluoro-phenyl)-2′-methyl-|2,5′|bithiazolyl-4-carboxylic acid (3-hydroxy-propyl)-amide], the IC50 is at most 1000 nM.

On to `CC(=O)c1ccccc1C(=O)NCc1nc(-c2ccc(F)cc2)c(-c2nc(C(=O)NC(C)C)cs2)o1` [Example 170], for which the 50% inhibitory concentration (IC50) is over 1000 nM.

Consider `CC(C)NC(=O)c1csc(-c2oc(CN3CCN(C(=O)c4cccc(F)c4F)CC3)nc2-c2ccc(F)cc2)n1` [Example 395], for which the IC50 was over 1000 nM.

Take `CC(C)NC(=O)c1csc(-c2oc(CN3CCN(C(=O)c4ccc(C(C)C)cc4)CC3)nc2-c2ccc(F)cc2)n1` [Example 408]: the IC50 is over 1000 nM.

`COc1cc(C(=O)NCc2onc(-c3ccc(F)cc3)c2-c2nc(C(=O)NC(C)C)cs2)cc(OC)c1OC` [Example 760] registered an IC50 of over 1000 nM.

In turn, `CC(C)NC(=O)c1csc(-c2oc(CNC(=O)c3cccc(Cl)c3[N+](=O)[O-])nc2-c2ccc(F)cc2)n1` [Example 270] gave an IC50 of at most 1000 nM.

The molecule `CC(C)NC(=O)c1csc(-c2oc(CN3CCN(C(=O)C4CCCN4C(=O)OCc4ccccc4)CC3)nc2-c2ccc(F)cc2)n1` (centres unmarked) [Example 564] returned an IC50 of over 1000 nM.

With `CC(C)NC(=O)c1csc(-c2oc(CN3CCN(C(=O)c4cc([N+](=O)[O-])ccc4O)CC3)nc2-c2ccc(F)cc2)n1` [Example 471], the 50% inhibitory concentration (IC50) was at most 1000 nM.

`CC(C)NC(=O)c1csc(-c2oc(CNC(=O)C(C)c3ccc(-c4ccccc4)c(F)c3)nc2-c2ccc(F)cc2)n1` (centres unmarked) [Example 324] gave an IC50 of over 1000 nM.

For `COc1ccccc1/C=C/C(=O)NCc1onc(-c2ccc(F)cc2)c1-c1nc(C(=O)NC(C)C)cs1` [Example 680], the IC50 is over 1000 nM.

Still in this assay, the particulars now being: p38α kinase; Table 1 Biological Activity.
Consider `CC(C)NC(=O)c1csc(-c2oc(CNc3ncccc3OCc3ccccc3)nc2-c2ccc(F)cc2)n1` [Example 1371], for which the IC50 is over 1000 nM.

`Cc1nc(-c2ccc(F)cc2)c(-c2nc(C(=O)Nc3ccccc3-c3ccccc3)cs2)s1` [Example 2010] showed a half-inhibitory concentration (IC50) of at most 1000 nM.

`Cc1ccnc(NCc2nc(-c3ccc(F)cc3)c(-c3nc(C(=O)NC(C)C)cs3)o2)c1` [Example 1313] had an IC50 of over 1000 nM.

Turning to `Cc1nc(-c2ccc(F)cc2)c(-c2nc(C(=O)N3CCN(c4ccccc4F)CC3)cs2)s1` [Example 1904], the IC50 is over 1000 nM.

`COc1ccc(CNC(=O)c2csc(-c3sc(C)nc3-c3ccc(F)cc3)n2)cc1O` [Example 1825] returned an IC50 of at most 1000 nM.

As for `CC(C)NC(=O)c1csc(-c2c(-c3ccc(F)cc3)noc2CN[C@H](C)c2ccccc2)n1` [Example 1429], the IC50 was over 1000 nM.

For `COCCOCn1nc(-c2ccc(F)cc2)c(-c2nc(C=O)cs2)c1C` [Example 2161, 2-|3-(4-Fluoro-phenyl)-1-(2-methoxy-ethoxymethyl)-5-methyl-1H-pyrazol-4-yl|-thiazole-4-carbaldehyde], the IC50 was over 1000 nM.

`Cc1ccc(C)c(N2CCN(Cc3onc(-c4ccc(F)cc4)c3-c3nc(C(=O)NC(C)C)cs3)CC2)c1` [Example 1594] returned an IC50 of over 1000 nM.

Regarding `CC(C)NC(=O)c1csc(-c2oc(CNCCC(c3ccccc3)c3ccccc3)nc2-c2ccc(F)cc2)n1` [Example 1179], the 50% inhibitory concentration (IC50) was over 1000 nM.

For `CC(C)NC(=O)c1csc(-c2c(-c3ccc(F)cc3)noc2CNC2CCCc3ccccc32)n1` (centres unmarked) [Example 1378], the concentration for half-maximal inhibition (IC50) was over 1000 nM.

`CC(C)NC(=O)c1csc(-c2oc(CNCCCN3CCCC3=O)nc2-c2ccc(F)cc2)n1` [Example 1133]: the 50% inhibitory concentration (IC50) was over 1000 nM.

`CC(C)NC(=O)c1csc(-c2oc(CN3CCN(C(=O)OC(C)(C)C)C[C@H]3CO)nc2-c2ccc(F)cc2)n1` [Example 1292] returned an IC50 of over 1000 nM.

In the case of `CC(C)NC(=O)c1csc(-c2oc(CNCCc3ccc(Cl)cc3)nc2-c2ccc(F)cc2)n1` [Example 1150], the half-inhibitory concentration (IC50) is over 1000 nM.

Turning to `CC(C)NC(=O)c1csc(-c2c(-c3ccc(F)cc3)noc2CN2CCc3ccccc3C2)n1` [Example 1549], the 50% inhibitory concentration (IC50) was over 1000 nM.

As for `CC(C)NC(=O)c1csc(-c2oc(CNCC#N)nc2-c2ccc(F)cc2)n1` [Example 1052], the IC50 was over 1000 nM.

For `CC(C)NC(=O)c1csc(-c2c(-c3ccc(F)cc3)n[nH]c2C2CCN(C(=O)C(C)c3cccc(C(=O)c4ccccc4)c3)CC2)n1` (centres unmarked) [Example 1044], the IC50 is over 1000 nM.

The molecule `Cc1[nH]nc(-c2ccc(F)cc2)c1-c1nc(C(=O)NC(C)C)ns1` [Example 2195, 5-|3-(4-Fluoro-phenyl)-5-methyl-1H-pyrazol-4-yl|-|1,2,4|thiadiazole-3-carboxylic acid isopropylamide] yielded an IC50 of over 1000 nM.

Consider `COc1ccc(CNCc2onc(-c3ccc(F)cc3)c2-c2nc(C(=O)NC(C)C)cs2)cc1` [Example 1456], for which the half-inhibitory concentration (IC50) was over 1000 nM.

In the case of `CC(C)CNCc1onc(-c2ccc(F)cc2)c1-c1nc(C(=O)NC(C)C)cs1` [Example 1394], the 50% inhibitory concentration (IC50) was over 1000 nM.

`CC(C)NC(=O)c1csc(-c2oc(CNc3ccccc3-c3ccccc3)nc2-c2ccc(F)cc2)n1` [Example 1360]: the 50% inhibitory concentration (IC50) is over 1000 nM.

Turning to `CCOC(=O)CC(=O)N1CCC(c2[nH]nc(-c3ccc(F)cc3)c2-c2nc(C(=O)NC(C)C)cs2)CC1` [Example 834], the IC50 is at most 1000 nM.

`CC(C)NC(=O)c1csc(-c2c(-c3ccc(F)cc3)noc2CN2CCN(c3ccc(C#N)cn3)CC2)n1` [Example 1587] had an IC50 of over 1000 nM.

The molecule `COC(=O)c1ccc(C(=O)N2CCC(c3[nH]nc(-c4ccc(F)cc4)c3-c3nc(C(=O)NC(C)C)cs3)CC2)cc1` [Example 928] gave an IC50 of over 1000 nM.

Molecule `CC(C)NC(=O)c1csc(-c2c(-c3ccc(F)cc3)noc2CN2CC(C)OC(C)C2)n1` (centres unmarked) [Example 1538] had a 50% inhibitory concentration (IC50) of over 1000 nM.

As to `Cc1nc(-c2ccc(F)cc2)c(-c2nc(C(=O)NCCc3cccc(F)c3)cs2)s1` [Example 1784], the IC50 is at most 1000 nM.

`CC(=O)C(=O)N1CCC(c2[nH]nc(-c3ccc(F)cc3)c2-c2nc(C(=O)NC(C)C)cs2)CC1` [Example 2176, 2-{3-(4-Fluoro-phenyl)-5-|1-(2-oxo-propionyl)-piperidin-4-yl|-1H-pyrazol-4-yl}-thiazole-4-carboxylic acid isopropylamide]: the IC50 was at most 1000 nM.

`CC(C)NC(=O)c1csc(-c2c(-c3ccc(F)cc3)n[nH]c2C2CCN(C(=O)CNC(=O)OC(C)(C)C)CC2)n1` [Example 915] showed an IC50 of over 1000 nM.

In the case of `Cc1nc(-c2ccc(F)cc2)c(-c2nc(C(=O)Nc3ccccc3C(C)(C)C)cs2)s1` [Example 1997], the IC50 is over 1000 nM.

As for `Cc1nc(-c2ccc(F)cc2)c(-c2nc(C(=O)NCCCc3ccccc3)cs2)s1` [Example 1774], the IC50 is over 1000 nM.

Regarding `CC(C)NC(=O)c1csc(-c2oc(CN(C)CC(O)c3ccc(O)cc3)nc2-c2ccc(F)cc2)n1` (centres unmarked) [Example 1246], the IC50 is over 1000 nM.

`CCc1ccccc1NC(=O)c1csc(-c2sc(C)nc2-c2ccc(F)cc2)n1` [Example 1967] had an IC50 of over 1000 nM.

Take `CC(C)NC(=O)c1csc(-c2oc(CNCCCN(C)c3ccccc3)nc2-c2ccc(F)cc2)n1` [Example 1159]: the half-inhibitory concentration (IC50) is over 1000 nM.

Take `CC(C)NC(=O)c1csc(-c2c(-c3ccc(F)cc3)n[nH]c2C2CCN(C(=O)c3cc(F)c(F)cc3[N+](=O)[O-])CC2)n1` [Example 992]: the IC50 is over 1000 nM.

`Cc1nc(-c2ccc(F)cc2)c(-c2nc(C(=O)N(C)CC(O)c3ccccc3)cs2)s1` (centres unmarked) [Example 1885] registered an IC50 of over 1000 nM.

For the molecule `CC(C)NC(=O)c1csc(-c2c(-c3ccc(F)cc3)noc2CN(C)CCO)n1` [Example 1515], the half-inhibitory concentration (IC50) is at most 1000 nM.

`Cc1nc(-c2ccc(F)cc2)c(-c2nc(C(=O)NCC3CCCCC3)cs2)s1` [Example 1745] gave an IC50 of at most 1000 nM.

The molecule `COc1ccc(-c2ccccc2)cc1NCc1onc(-c2ccc(F)cc2)c1-c1nc(C(=O)NC(C)C)cs1` [Example 1695] returned a 50% inhibitory concentration (IC50) of at most 1000 nM.

In turn, `CC(C)NC(=O)c1csc(-c2c(-c3ccc(F)cc3)noc2CN(C)Cc2cccc3ccccc23)n1` [Example 1609] had an IC50 of over 1000 nM.

(Values after patent publication US20060252807A1, “Novel ortho-terphenyl inhibitors of p38 kinase and methods of treating inflammatory disorders” (Kalypsys, Inc., priority 2005, published 2006).)
